Our source for the IC50 values is BindingDB's records for patent US20250313563 (The Broad Institute, 2025).

Experiment [1] concerns the target Glycogen synthase kinase-3 alpha (Homo sapiens, UniProt P49840). Kind of experiment: TR-FRET Assay. In a few lines: (§1)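 Signal is measured as TR-FRET between a terbium anti-phospho-Ser641 antibody and streptavidin-d2, added after an EDTA quench. Compounds are preincubated 30 min in assay buffer.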
In general terms: In TR-FRET formats the signal depends on donor and acceptor labels being close together.

Experiment [2] concerns the target Glycogen synthase kinase-3 beta (Homo sapiens, UniProt P49841). Nature of the experiment: TR-FRET Assay. In a few lines:
as §1

A word on the IC50: it is the concentration at which inhibition is half-maximal.

Where “and” joins values, the source holds several entries; their conditions need not be identical. Equal values may be shown once.

Sequence of Glycogen synthase kinase-3 beta (P49841 whole entry): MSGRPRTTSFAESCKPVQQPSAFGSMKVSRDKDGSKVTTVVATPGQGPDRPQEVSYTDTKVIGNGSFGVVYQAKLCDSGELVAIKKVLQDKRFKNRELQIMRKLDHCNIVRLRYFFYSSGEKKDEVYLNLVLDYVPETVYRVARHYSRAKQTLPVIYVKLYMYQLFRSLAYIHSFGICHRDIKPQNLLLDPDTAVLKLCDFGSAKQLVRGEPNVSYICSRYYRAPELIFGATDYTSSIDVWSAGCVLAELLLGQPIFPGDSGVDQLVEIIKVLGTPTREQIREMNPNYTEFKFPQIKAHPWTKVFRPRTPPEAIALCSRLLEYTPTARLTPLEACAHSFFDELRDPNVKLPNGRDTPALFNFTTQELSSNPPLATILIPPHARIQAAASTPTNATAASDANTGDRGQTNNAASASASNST
Sequence of Glycogen synthase kinase-3 alpha (P49840 whole entry): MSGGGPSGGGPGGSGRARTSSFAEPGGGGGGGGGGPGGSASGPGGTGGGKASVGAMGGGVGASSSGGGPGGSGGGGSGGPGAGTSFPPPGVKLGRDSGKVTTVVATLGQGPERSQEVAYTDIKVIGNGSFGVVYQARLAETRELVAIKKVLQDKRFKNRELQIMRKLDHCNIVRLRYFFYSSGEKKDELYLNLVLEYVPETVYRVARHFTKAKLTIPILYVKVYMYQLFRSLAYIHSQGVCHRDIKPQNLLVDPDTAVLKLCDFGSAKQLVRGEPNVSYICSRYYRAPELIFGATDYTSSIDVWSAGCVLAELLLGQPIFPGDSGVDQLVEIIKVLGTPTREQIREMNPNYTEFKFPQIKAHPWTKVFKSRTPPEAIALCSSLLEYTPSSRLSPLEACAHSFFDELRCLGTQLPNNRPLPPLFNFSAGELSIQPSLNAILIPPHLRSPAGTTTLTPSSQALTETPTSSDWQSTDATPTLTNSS

Consider `CC1(C)CC(=O)C2=C(C1)NC1=C(CN=N1)C21CCCCC1=O` (configuration not stated) [US20250313563, Compound 912105], for which the IC50 in experiment [1] and in experiment [2] was over 5 µM each time.
For the molecule `CC1(C)CC(=O)C2=C(C1)NC1=C(CN=N1)[C@]21CCO[C@@H](C(C)(C)C)C1` [US20250313563, Compound 912106], the IC50 in experiment [1] fell in the range of 0.1 to 1 µM; in experiment [2] it was 1 to 5 µM.
The like results for `CC1(C)CC(=O)C2=C(C1)NC1=C(CN=N1)[C@@]21CCO[C@H](C(C)(C)C)C1` [US20250313563, Compound 912107] were, in that order, over 5 µM and over 5 µM.
The like results for `CC1(C)CC(=O)C2=C(C1)NC1=C(CN=N1)[C@]21CCO[C@H](C(C)(C)C)C1` [US20250313563, Compound 912112] were, in that order, 0.1 to 1 µM and 0.1 to 1 µM.
The like results for `CC1(C)CC(=O)C2=C(C1)NC1=C(CN=N1)[C@@]21CCO[C@@H](C(C)(C)C)C1` [US20250313563, Compound 912113] were, in that order, 1 to 5 µM and 1 to 5 µM.
For the molecule `CCC1(c2cccc(N(CC3CCCC3)C(C)=O)c2)C2=CN=NC2NC2=C1C(=O)CC(C)(C)C2` (configuration not stated) [US20250313563, Compound 912166], the half-maximal inhibitory concentration (IC50) in experiment [1] and in experiment [2] was under 0.1 µM each time.
On to `CCC1(c2cccc(N(C)C(=O)C3CCN(C)CC3)c2)C2=CN=NC2NC2=C1C(=O)CC(C)(C)C2` (configuration not stated) [US20250313563, Compound 912167], for which the figures for the IC50 in experiment [1] and in experiment [2] were 0.1 to 1 µM and 1 to 5 µM, respectively.
Taken in the same sequence, the figures for `CC1(C)CC(=O)C2=C(C1)NC1=C(CN=N1)C21CC2(COC2)C1` [US20250313563, Compound 912168] were over 5 µM and over 5 µM.
For `CCC1(c2cccc(S(=O)(=O)C(C)C)c2)C2=CN=NC2NC2=C1C(=O)CC(C)(C)C2` (configuration not stated) [US20250313563, Compound 912169], the IC50 in experiment [1] and in experiment [2] was under 0.1 µM throughout.
As to `CC1(C)CC(=O)C2=C(C1)NC1=C(CN=N1)C21CS(=O)(=O)C1` [US20250313563, Compound 912170], the concentration for half-maximal inhibition (IC50) was 1 to 5 µM in experiment [1] and over 5 µM in experiment [2].
For the molecule `COC[C@H]1C[C@@]2(C1)C1=C(N=NC1)NC1=C2C(=O)CC(C)(C)C1` [US20250313563, Compound 912173], the 50% inhibitory concentration (IC50) in experiment [1] and in experiment [2] was 0.1 to 1 µM in each case.
As to `CC[C@]1(c2cccc(C(F)(F)F)c2)C2=CN=NC2NC2=C1C(=O)N(CC(F)(F)F)CC2` (some centres not stated) [US20250313563, Compound 912205], the half-inhibitory concentration (IC50) in experiment [1] and in experiment [2] was over 5 µM throughout.
On to `CC1(C)CC(=O)C2=C(C1)NC1=C(CN=N1)C21CCC2(CCC(=O)N2C(=O)OC(C)(C)C)CC1` (configuration not stated) [US20250313563, Compound 912217], for which the IC50 in experiment [1] was 1 to 5 µM; in experiment [2], over 5 µM.
As to `CC[C@]1(c2cccc(C(F)(F)F)c2)C2=CN=NC2NC2=C1C(=O)NCC2` (some centres not stated) [US20250313563, Compound 912622], the IC50 in experiment [1] lay within 0.1 to 1 µM; in experiment [2] it was 1 to 5 µM.
The like results for `CC[C@@]1(c2cccc(C(F)(F)F)c2)C2=CN=NC2NC2=C1C(=O)NCC2` (some centres not stated) [US20250313563, Compound 912668] were, in that order, over 5 µM and over 5 µM.
Consider `CC1(C)CC(=O)C2=C(C1)NC1=C(CN=N1)C21COC2(CN(S(=O)(=O)c3ccccc3)C2)C1` (configuration not stated) [US20250313563, Compound 913002], for which the 50% inhibitory concentration (IC50) in experiment [1] fell in the range of 0.1 to 1 µM; in experiment [2], 1 to 5 µM.
Taken in the same sequence, the figures for `CC[C@]1(c2cccc(C(F)(F)F)c2)C2=CN=NC2NC2=C1C(=O)NC(C)(C)C2` (some centres not stated) [US20250313563, Compound 913004] were over 5 µM and over 5 µM.
Taken in the same sequence, the figures for `CC[C@@]1(c2cccc(-c3ccncc3)c2)C2=C(CC(C)(C)CC2=O)NC2N=NC(C)=C21` (some centres not stated) [US20250313563, Compound 913015] were under 0.1 µM and under 0.1 µM.
Regarding `CC[C@@]1(c2cccc(-c3ccnc(OC)c3)c2)C2=C(CC(C)(C)CC2=O)NC2N=NC(C)=C21` (some centres not stated) [US20250313563, Compound 913016], the IC50 fell in the range of 0.1 to 1 µM in experiment [1] and 1 to 5 µM in experiment [2].
Taken in the same sequence, the figures for `CC[C@@]1(c2cccc(-c3ccncc3F)c2)C2=C(CC(C)(C)CC2=O)NC2N=NC(C)=C21` (some centres not stated) [US20250313563, Compound 913017] were 0.1 to 1 µM and 0.1 to 1 µM.
Taken in the same sequence, the figures for `CC[C@@]1(c2cccc(-c3ccnc(C)c3)c2)C2=C(CC(C)(C)CC2=O)NC2N=NC(C)=C21` (some centres not stated) [US20250313563, Compound 913018] were 0.1 to 1 µM and 1 to 5 µM.
The like results for `CC[C@@]1(c2cccc(-c3cc(C)ncc3C)c2)C2=C(CC(C)(C)CC2=O)NC2N=NC(C)=C21` (some centres not stated) [US20250313563, Compound 913019] were, in that order, 0.1 to 1 µM and 1 to 5 µM.
For the molecule `CC[C@@]1(c2cccc(-c3ccnc(N(C)C)c3)c2)C2=C(CC(C)(C)CC2=O)NC2N=NC(C)=C21` (some centres not stated) [US20250313563, Compound 913021], the IC50 in experiment [1] and in experiment [2] was under 0.1 µM in each case.
With `CC[C@@]1(c2cccc(-c3ccncc3C)c2)C2=C(CC(C)(C)CC2=O)NC2N=NC(C)=C21` (some centres not stated) [US20250313563, Compound 913022], the IC50 in experiment [1] lay in the range of 0.1 to 1 µM; in experiment [2], 1 to 5 µM.
The like results for `CC[C@@]1(c2cccc(-c3cnn(C)c3C)c2)C2=C(CC(C)(C)CC2=O)NC2N=NC(C)=C21` (some centres not stated) [US20250313563, Compound 913024] were, in that order, 0.1 to 1 µM and 1 to 5 µM.
The like results for `CC[C@@]1(c2cccc(-c3c(C)nn(C)c3C)c2)C2=C(CC(C)(C)CC2=O)NC2N=NC(C)=C21` (some centres not stated) [US20250313563, Compound 913026] were, in that order, 0.1 to 1 µM and 0.1 to 1 µM.
Taken in the same sequence, the figures for `CC[C@@]1(c2cccc(-c3cnn(CCOC)c3)c2)C2=C(CC(C)(C)CC2=O)NC2N=NC(C)=C21` (some centres not stated) [US20250313563, Compound 913027] were under 0.1 µM and under 0.1 µM.
As to `CC[C@@]1(c2cccc(-c3cn(C)nc3C(C)C)c2)C2=C(CC(C)(C)CC2=O)NC2N=NC(C)=C21` (some centres not stated) [US20250313563, Compound 913029], the IC50 in experiment [1] and in experiment [2] was under 0.1 µM each time.
Regarding `CC[C@@]1(c2cccc(-c3ccn(C)n3)c2)C2=C(CC(C)(C)CC2=O)NC2N=NC(C)=C21` (some centres not stated) [US20250313563, Compound 913030], the half-inhibitory concentration (IC50) in experiment [1] was < 0.1 µM and 0.1 to 1 µM; in experiment [2] it was < 0.1 µM and 0.1 to 1 µM.
For `CC[C@@]1(c2cccc(-c3cncn3C)c2)C2=C(CC(C)(C)CC2=O)NC2N=NC(C)=C21` (some centres not stated) [US20250313563, Compound 913032], the half-maximal inhibitory concentration (IC50) in experiment [1] and in experiment [2] was under 0.1 µM throughout.
As to `CC[C@@]1(c2cccc(-c3cnn4c3CCCC4)c2)C2=C(CC(C)(C)CC2=O)NC2N=NC(C)=C21` (some centres not stated) [US20250313563, Compound 913033], the half-inhibitory concentration (IC50) in experiment [1] is 0.1 to 1 µM; in experiment [2] it was 1 to 5 µM.
For `CC[C@]1(c2cccc(-c3cn(C)nc3C)c2)C2=C(CC(C)(C)CC2=O)NC2N=NC(C)=C21` (some centres not stated) [US20250313563, Compound 913035], the IC50 was under 0.1 µM in experiment [1]; < 0.1 µM and 0.1 to 1 µM in experiment [2].
With `CC[C@]1(c2cccc(-c3cncn3C)c2)C2=C(CC(C)(C)CC2=O)NC2N=NC(C)=C21` (some centres not stated) [US20250313563, Compound 913037], the results for the 50% inhibitory concentration (IC50) in experiment [1] and in experiment [2] were under 0.1 µM and 0.1 to 1 µM, respectively.
As for `CC[C@]1(c2cccc(-c3cnn(C)c3)c2)C2=C(CC(C)(C)CC2=O)NC2N=NC(C)=C21` (some centres not stated) [US20250313563, Compound 913038], the IC50 in experiment [1] fell in the range of 0.1 to 1 µM; in experiment [2], 1 to 5 µM.
The like results for `CC[C@]1(c2cccc(-c3cn(C)nc3C(C)C)c2)C2=C(CC(C)(C)CC2=O)NC2N=NC(C)=C21` (some centres not stated) [US20250313563, Compound 913040] were, in that order, 0.1 to 1 µM and 1 to 5 µM.
On to `CC[C@@]1(c2cccc(-c3cnn(C4CC4)c3)c2)C2=CN=NC2NC2=C1C(=O)CC(C)(C)C2` (some centres not stated) [US20250313563, Compound 913041], for which the IC50 is 1 to 5 µM in experiment [1] and over 5 µM in experiment [2].
On to `CC[C@]1(c2cccc(-c3cnn(CCOC)c3)c2)C2=C(CC(C)(C)CC2=O)NC2N=NC(C)=C21` (some centres not stated) [US20250313563, Compound 913042], for which the 50% inhibitory concentration (IC50) in experiment [1] and in experiment [2] was over 5 µM in each case.
`CC[C@]1(c2cccc(-c3c(C)nn(C)c3C)c2)C2=C(CC(C)(C)CC2=O)NC2N=NC(C)=C21` (some centres not stated) [US20250313563, Compound 913043]: the IC50 is under 0.1 µM in experiment [1]; < 0.1 µM and 0.1 to 1 µM in experiment [2].
`CC[C@]1(c2cccc(C3=CN=NC3)c2)C2=C(CC(C)(C)CC2=O)NC2N=NC(C)=C21` (some centres not stated) [US20250313563, Compound 913044]: the IC50 in experiment [1] and in experiment [2] was 0.1 to 1 µM throughout.
Regarding `CC[C@]1(c2cccc(-c3ccnn3C)c2)C2=C(CC(C)(C)CC2=O)NC2N=NC(C)=C21` (some centres not stated) [US20250313563, Compound 913046], the IC50 in experiment [1] was 1 to 5 µM and > 5 µM; in experiment [2], over 5 µM.
`CC[C@@]1(c2cccc(-c3ccncc3C)c2)C2=CN=NC2NC2=C1C(=O)CC(C)(C)C2` (some centres not stated) [US20250313563, Compound 913047]: the 50% inhibitory concentration (IC50) in experiment [1] is under 0.1 µM; in experiment [2], < 0.1 µM and 0.1 to 1 µM.
Turning to `CC[C@]1(c2cccc(-c3ccnc(N(C)C)c3)c2)C2=C(CC(C)(C)CC2=O)NC2N=NC(C)=C21` (some centres not stated) [US20250313563, Compound 913048], the concentration for half-maximal inhibition (IC50) in experiment [1] lay within 0.1 to 1 µM; in experiment [2] it was 1 to 5 µM.
As for `CC[C@]1(c2cccc(-c3cc(C)ncc3C)c2)C2=C(CC(C)(C)CC2=O)NC2N=NC(C)=C21` (some centres not stated) [US20250313563, Compound 913050], the IC50 in experiment [1] is under 0.1 µM; in experiment [2] it was < 0.1 µM and 0.1 to 1 µM.
Turning to `CC[C@]1(c2cccc(-c3ccncc3)c2)C2=C(CC(C)(C)CC2=O)NC2N=NC(C)=C21` (some centres not stated) [US20250313563, Compound 913054], the IC50 was in the range of 0.1 to 1 µM in experiment [1] and 1 to 5 µM in experiment [2].
On to `CC1(C)CC(=O)C2=C(C1)NC1=C(CN=N1)C21CCC2(CCC(=O)N2)CC1` (configuration not stated) [US20250313563, Compound 913056], for which the IC50 in experiment [1] is 0.1 to 1 µM; in experiment [2], 1 to 5 µM.
In the case of `CC1(C)CC(=O)C2=C(C1)NC1=C(CN=N1)[C@@]21COC2(CN(S(C)(=O)=O)C2)C1` [US20250313563, Compound 913057], the concentration for half-maximal inhibition (IC50) in experiment [1] and in experiment [2] was under 0.1 µM each time.
